According to patent US7163946B2 (Ligand Pharmaceuticals Incorporated, priority 2002, dated 2007):

Assays:
hPR-A = molecular target: T1, hPR-A (Homo sapiens, UniProt P06401); test: Receptor competitive binding assay; settings: read-out: PR binding Ki
T1 sequence (P06401 1-769 isoform P06401-2): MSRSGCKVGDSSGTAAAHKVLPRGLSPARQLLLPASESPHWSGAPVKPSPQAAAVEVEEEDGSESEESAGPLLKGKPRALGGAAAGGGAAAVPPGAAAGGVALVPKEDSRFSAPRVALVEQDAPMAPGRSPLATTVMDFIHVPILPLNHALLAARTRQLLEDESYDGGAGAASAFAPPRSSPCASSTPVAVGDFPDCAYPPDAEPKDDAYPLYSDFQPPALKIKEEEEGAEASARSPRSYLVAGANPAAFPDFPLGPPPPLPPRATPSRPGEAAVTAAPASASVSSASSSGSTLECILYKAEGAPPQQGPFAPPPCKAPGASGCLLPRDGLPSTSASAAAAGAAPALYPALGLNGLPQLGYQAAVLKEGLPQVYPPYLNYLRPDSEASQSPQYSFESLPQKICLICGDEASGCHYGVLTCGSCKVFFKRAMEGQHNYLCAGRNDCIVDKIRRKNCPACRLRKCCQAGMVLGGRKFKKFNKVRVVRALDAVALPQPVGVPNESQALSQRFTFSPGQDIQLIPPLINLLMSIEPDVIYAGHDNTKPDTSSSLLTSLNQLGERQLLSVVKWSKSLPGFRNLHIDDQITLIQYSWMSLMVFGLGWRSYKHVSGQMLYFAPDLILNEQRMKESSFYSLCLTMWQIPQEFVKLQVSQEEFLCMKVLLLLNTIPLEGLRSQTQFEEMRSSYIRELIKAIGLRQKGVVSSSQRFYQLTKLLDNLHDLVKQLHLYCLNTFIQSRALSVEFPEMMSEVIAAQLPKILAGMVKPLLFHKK

hGR = molecular target: T2, hGR (Homo sapiens, UniProt P04150); test: hGR cotransfection assay (potency ratio to hPR); format: cell-based; settings: receptor-selectivity potency ratio, cotransfection assays
T2 sequence (P04150 1-777): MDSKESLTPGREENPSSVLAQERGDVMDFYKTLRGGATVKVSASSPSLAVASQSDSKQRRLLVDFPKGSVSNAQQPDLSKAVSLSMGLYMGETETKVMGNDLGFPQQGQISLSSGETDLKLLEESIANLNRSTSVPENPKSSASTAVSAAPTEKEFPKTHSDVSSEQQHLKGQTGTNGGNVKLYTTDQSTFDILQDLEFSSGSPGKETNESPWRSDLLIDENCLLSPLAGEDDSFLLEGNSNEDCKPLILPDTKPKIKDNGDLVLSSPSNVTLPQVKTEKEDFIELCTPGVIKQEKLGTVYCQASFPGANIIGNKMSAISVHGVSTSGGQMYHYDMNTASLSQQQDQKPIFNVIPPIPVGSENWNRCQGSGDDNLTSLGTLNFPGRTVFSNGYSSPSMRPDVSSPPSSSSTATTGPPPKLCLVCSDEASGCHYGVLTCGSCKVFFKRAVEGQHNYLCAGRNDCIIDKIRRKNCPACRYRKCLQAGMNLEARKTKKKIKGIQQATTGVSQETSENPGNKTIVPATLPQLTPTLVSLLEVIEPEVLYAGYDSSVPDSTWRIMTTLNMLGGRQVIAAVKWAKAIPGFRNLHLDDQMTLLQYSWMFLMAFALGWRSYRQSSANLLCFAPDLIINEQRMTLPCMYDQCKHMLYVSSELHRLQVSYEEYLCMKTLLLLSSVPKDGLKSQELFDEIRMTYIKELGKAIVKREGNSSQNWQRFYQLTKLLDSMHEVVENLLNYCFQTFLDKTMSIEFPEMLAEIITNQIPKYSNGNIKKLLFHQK
Description: (§1) Antagonist efficacy was determined as a function (%) of maximal inhibition of a reference agonist at EC50 concentration. All the cotransfection experiments were carried out in 96-well plates by automation (Beckman Biomomek automated workstation).

[1] = molecular target: T3, human estrogen receptor (hER) (Homo sapiens, UniProt P03372); test: hER cotransfection assay (potency ratio to hPR); format: cell-based; settings: receptor-selectivity potency ratio, cotransfection assays
T3 sequence (P03372 1-595): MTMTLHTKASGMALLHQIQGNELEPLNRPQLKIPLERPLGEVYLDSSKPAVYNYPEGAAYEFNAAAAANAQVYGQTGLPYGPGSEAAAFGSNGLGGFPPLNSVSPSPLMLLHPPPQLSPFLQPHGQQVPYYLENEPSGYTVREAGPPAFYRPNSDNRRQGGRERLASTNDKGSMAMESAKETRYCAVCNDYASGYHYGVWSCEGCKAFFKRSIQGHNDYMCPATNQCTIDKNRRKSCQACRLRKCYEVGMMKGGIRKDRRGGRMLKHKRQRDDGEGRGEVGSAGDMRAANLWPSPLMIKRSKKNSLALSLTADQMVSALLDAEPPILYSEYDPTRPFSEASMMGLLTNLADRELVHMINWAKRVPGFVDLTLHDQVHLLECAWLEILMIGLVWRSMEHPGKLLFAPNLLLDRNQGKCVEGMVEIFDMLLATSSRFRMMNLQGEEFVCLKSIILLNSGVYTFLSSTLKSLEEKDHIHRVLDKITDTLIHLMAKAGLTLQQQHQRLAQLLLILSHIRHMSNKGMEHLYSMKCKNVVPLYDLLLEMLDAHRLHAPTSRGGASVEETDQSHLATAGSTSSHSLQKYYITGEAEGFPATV
Description: as §1

hPR = molecular target: T4, hPR (Homo sapiens, UniProt P06401); test: T47D alkaline phosphatase assay, antagonist mode; format: cell-based; settings: T47D human breast cancer cells; for Emax: read-out: hPR Antagonists T47D Cells Eff. (%); for IC50: read-out: hPR Antagonists T47D Cells IC50
T4 sequence (P06401 679-933 limits assumed): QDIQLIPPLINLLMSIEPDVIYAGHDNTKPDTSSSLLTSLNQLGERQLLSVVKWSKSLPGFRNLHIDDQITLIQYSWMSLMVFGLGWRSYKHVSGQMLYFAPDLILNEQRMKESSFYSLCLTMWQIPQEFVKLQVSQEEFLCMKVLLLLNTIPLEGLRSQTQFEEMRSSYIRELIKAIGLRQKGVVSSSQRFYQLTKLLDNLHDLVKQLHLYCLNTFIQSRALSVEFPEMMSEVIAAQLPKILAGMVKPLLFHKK
Excerpt: The potential tissue-selectivities of the selected analogues were examined by using the T47D alkaline phosphatase assay that was developed from human breast cancer cells with endogenous PRs.

Compound: CC1=CC(C)(C)Nc2ccc3c(c21)/C(=C/c1ccsc1)Oc1c(F)cc(F)cc1-3 [Compound 30, 7,9-difluoro-5(Z)-(3-thienylmethylidene)-1,2-dihydro-2,2,4-trimethyl-5H-chromeno[3,4-f]quinoline]
- Ki (hPR-A): 4.5 nM
- hGR EC50 or IC50/hPR EC50 (hGR): 19
- hER EC50 or IC50/hPR EC50 [1]: >1000
- Emax (hPR): 44%
- IC50 (hPR): 840 nM

Compound: CC1=CC(C)(C)Nc2ccc3c(c21)/C(=C/c1cccs1)Oc1c(F)cc(F)cc1-3 [Compound 31, 7,9-difluoro-5(Z)-(2-thienylmethylidene)-1,2-dihydro-2,2,4-trimethyl-5H-chromeno[3,4-f]quinoline]
- Ki (hPR-A): 7.9 nM
- hGR EC50 or IC50/hPR EC50 (hGR): 59
- hER EC50 or IC50/hPR EC50 [1]: >1000
- Emax (hPR): 39%
- IC50 (hPR): 610 nM
